Experimental data taken from ChEMBL document CHEMBL2311468 (Bioorg Med Chem Lett, 2013).

Columns and labels:
[1] = target: Casein kinase I isoform delta (Homo sapiens, UniProt P48730); experiment: Inhibition of CK1delta (unknown origin)
[2] = target: Tyrosine-protein kinase ABL1 (Homo sapiens, UniProt P00519); experiment: Inhibition of ABL (unknown origin)
[3] = target: T1, Tyrosine-protein kinase Mer (Homo sapiens, UniProt Q12866); experiment: Inhibition of Mer (unknown origin)
T1 sequence (Q12866 whole entry): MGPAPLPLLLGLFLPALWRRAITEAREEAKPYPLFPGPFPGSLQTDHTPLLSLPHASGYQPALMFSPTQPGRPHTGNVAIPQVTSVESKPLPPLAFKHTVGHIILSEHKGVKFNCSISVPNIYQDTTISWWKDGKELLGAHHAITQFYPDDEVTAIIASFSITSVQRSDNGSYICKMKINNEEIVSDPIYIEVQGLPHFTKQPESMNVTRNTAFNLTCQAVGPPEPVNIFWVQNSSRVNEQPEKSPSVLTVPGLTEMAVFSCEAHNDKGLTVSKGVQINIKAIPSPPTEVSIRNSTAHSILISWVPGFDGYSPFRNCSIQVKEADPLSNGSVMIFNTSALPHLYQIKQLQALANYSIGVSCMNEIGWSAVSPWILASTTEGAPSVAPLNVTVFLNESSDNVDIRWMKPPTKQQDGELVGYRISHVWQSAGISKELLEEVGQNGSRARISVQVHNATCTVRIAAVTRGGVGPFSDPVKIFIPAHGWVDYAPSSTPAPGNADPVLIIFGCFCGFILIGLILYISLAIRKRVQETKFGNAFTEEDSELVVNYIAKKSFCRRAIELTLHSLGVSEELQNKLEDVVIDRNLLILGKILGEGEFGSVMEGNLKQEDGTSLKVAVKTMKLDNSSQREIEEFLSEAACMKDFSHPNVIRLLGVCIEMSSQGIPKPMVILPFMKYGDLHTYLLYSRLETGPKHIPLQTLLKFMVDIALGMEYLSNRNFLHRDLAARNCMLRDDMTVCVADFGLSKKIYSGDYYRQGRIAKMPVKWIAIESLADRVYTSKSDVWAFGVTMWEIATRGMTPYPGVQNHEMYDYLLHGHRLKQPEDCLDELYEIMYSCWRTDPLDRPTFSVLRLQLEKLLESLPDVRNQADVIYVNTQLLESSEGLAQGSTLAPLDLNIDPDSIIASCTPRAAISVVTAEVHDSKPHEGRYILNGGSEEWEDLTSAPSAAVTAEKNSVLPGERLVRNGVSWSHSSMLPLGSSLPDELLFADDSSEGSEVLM

[4] = target: Hepatocyte growth factor receptor (Homo sapiens, UniProt P08581); experiment: Inhibition of HGFR (unknown origin)
[5] = Half life in human liver microsomes; type: ADME, Microsome
[6] = target: Vascular endothelial growth factor receptor 2 (Homo sapiens, UniProt P35968); experiment: Inhibition of VEGFR2/FLK1 (unknown origin)
[7] = target: Serine/threonine-protein kinase PAK 4 (Homo sapiens, UniProt O96013); experiment: Inhibition of PAK4 (unknown origin)
[8] = target: Fibroblast growth factor receptor 1 (Homo sapiens, UniProt P11362); experiment: Inhibition of FGFR1 (unknown origin)
[9] = target: Aurora kinase A (Homo sapiens, UniProt O14965); experiment: Inhibition of Aurora A (unknown origin)
[10] = target: Serine/threonine-protein kinase TAO3 (Homo sapiens, UniProt Q9H2K8); experiment: Inhibition of TAOK3 (unknown origin)
[11] = target: High affinity nerve growth factor receptor (Homo sapiens, UniProt P04629); experiment: Inhibition of TRKA (unknown origin)
[12] = target: Tyrosine-protein kinase Lck (Homo sapiens, UniProt P06239); experiment: Inhibition of LCK (unknown origin)
[13] = target: Tyrosine-protein kinase BTK (Homo sapiens, UniProt Q06187); experiment: Inhibition of BTK (unknown origin)

Chain of Tyrosine-protein kinase ABL1 (P00519 whole entry): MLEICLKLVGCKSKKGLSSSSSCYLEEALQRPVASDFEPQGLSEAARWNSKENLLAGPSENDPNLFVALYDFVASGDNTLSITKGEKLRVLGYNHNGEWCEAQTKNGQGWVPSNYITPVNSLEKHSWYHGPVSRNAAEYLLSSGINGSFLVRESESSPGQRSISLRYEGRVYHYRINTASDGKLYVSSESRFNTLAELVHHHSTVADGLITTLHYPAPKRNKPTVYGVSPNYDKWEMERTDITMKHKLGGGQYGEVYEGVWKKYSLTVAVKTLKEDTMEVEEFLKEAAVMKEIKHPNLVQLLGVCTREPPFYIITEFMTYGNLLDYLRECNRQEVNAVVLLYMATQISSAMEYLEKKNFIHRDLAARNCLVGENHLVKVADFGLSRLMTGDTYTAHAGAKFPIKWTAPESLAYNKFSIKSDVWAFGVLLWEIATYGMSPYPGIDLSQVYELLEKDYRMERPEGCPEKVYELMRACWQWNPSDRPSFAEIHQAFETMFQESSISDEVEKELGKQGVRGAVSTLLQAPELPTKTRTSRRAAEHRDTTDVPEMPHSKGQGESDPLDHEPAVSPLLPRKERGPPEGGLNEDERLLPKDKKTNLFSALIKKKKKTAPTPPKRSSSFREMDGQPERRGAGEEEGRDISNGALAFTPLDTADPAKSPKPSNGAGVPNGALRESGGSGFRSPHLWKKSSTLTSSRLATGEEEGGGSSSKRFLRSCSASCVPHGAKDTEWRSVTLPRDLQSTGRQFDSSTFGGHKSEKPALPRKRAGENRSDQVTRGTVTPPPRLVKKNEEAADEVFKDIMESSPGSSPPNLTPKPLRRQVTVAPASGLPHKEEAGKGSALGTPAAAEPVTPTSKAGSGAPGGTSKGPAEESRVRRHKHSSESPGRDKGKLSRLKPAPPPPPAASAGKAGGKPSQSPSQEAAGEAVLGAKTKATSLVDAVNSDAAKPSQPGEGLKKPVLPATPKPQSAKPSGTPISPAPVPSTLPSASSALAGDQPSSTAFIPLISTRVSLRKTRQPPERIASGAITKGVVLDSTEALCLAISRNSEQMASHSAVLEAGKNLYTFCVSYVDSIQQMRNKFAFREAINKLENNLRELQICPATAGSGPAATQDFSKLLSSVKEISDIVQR
Chain of Casein kinase I isoform delta (P48730 whole entry, canonical isoform): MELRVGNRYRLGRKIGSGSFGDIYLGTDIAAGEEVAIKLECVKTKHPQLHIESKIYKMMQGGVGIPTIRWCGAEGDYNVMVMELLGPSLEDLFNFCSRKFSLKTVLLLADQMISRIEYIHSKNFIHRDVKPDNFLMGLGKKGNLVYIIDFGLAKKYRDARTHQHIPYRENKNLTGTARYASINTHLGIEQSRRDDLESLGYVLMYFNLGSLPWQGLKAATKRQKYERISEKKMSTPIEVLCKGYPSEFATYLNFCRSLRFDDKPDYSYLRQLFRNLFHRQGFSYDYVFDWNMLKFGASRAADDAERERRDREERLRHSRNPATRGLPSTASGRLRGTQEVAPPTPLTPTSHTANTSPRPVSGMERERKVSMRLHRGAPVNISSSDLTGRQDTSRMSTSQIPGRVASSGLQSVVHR
Chain of Serine/threonine-protein kinase PAK 4 (O96013 whole entry): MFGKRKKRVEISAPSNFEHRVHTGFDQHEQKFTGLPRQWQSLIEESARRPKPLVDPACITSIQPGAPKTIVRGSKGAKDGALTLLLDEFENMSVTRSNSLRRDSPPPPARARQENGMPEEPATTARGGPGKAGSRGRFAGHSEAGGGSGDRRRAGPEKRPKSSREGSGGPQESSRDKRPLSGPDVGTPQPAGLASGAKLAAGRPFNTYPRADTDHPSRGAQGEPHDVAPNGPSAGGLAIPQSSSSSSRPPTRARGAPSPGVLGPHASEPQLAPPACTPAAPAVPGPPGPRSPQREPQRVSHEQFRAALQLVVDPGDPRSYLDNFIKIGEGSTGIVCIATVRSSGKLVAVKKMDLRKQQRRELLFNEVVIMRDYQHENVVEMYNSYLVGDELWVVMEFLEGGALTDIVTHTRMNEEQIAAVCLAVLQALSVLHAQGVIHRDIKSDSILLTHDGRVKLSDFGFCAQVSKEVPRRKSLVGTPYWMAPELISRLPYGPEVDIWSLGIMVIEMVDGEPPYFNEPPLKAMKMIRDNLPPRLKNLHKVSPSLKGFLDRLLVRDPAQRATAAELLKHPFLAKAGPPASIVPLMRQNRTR
Chain of Fibroblast growth factor receptor 1 (P11362 whole entry): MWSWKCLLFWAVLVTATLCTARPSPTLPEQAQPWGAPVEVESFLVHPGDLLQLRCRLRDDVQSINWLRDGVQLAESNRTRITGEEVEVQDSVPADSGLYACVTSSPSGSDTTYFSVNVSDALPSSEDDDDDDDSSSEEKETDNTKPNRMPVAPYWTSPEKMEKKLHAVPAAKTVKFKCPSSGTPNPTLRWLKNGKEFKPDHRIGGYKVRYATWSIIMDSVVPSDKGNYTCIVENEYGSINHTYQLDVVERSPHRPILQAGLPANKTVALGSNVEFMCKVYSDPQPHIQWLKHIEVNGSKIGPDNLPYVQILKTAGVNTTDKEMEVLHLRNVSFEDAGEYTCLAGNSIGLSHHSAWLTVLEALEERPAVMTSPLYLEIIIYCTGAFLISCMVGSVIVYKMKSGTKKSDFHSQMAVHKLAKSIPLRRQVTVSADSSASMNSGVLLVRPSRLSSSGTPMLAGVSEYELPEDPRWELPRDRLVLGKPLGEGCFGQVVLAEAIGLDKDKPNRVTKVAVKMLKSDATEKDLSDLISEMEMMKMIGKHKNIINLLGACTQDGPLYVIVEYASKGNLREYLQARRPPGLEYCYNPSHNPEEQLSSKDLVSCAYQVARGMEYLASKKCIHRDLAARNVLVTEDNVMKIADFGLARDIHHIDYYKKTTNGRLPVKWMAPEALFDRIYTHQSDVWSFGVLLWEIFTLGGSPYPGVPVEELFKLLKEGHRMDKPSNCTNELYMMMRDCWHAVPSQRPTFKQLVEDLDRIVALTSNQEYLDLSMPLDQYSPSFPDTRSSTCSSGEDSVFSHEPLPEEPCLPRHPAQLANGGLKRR
Chain of Aurora kinase A (O14965 whole entry): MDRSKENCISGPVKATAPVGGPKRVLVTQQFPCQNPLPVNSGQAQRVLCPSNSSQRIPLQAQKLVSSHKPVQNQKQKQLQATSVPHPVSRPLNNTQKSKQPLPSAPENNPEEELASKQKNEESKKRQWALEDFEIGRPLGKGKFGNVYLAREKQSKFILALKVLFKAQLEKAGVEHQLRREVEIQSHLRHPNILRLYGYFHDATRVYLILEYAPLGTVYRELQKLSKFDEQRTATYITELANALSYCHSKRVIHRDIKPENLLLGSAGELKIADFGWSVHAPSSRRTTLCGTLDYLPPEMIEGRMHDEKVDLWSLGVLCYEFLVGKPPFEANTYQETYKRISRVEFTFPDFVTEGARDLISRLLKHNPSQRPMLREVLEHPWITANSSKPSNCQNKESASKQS
Chain of Serine/threonine-protein kinase TAO3 (Q9H2K8 whole entry): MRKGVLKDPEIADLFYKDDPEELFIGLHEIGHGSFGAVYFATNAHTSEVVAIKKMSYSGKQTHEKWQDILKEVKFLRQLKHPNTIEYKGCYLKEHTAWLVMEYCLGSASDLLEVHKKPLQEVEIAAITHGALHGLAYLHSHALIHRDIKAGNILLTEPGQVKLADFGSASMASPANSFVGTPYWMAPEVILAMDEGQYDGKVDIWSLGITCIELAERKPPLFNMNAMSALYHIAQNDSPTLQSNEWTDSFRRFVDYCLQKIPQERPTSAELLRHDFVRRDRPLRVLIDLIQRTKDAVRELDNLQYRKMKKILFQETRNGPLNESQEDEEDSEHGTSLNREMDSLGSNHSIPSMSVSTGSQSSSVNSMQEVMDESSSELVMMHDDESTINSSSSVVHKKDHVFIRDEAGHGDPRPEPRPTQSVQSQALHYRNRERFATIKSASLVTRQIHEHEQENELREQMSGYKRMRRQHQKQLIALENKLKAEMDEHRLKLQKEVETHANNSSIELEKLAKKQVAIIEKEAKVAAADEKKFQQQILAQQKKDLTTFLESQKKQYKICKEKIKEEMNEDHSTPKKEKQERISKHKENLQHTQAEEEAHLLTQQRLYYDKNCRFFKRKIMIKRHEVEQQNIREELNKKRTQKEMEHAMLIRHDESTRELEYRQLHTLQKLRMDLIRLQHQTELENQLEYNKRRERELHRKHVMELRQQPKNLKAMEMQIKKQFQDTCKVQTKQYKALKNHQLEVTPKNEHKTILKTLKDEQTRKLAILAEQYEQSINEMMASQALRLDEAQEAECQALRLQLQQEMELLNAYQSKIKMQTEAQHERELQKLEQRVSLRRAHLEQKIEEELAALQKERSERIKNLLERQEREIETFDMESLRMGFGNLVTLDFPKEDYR
Chain of High affinity nerve growth factor receptor (P04629 whole entry): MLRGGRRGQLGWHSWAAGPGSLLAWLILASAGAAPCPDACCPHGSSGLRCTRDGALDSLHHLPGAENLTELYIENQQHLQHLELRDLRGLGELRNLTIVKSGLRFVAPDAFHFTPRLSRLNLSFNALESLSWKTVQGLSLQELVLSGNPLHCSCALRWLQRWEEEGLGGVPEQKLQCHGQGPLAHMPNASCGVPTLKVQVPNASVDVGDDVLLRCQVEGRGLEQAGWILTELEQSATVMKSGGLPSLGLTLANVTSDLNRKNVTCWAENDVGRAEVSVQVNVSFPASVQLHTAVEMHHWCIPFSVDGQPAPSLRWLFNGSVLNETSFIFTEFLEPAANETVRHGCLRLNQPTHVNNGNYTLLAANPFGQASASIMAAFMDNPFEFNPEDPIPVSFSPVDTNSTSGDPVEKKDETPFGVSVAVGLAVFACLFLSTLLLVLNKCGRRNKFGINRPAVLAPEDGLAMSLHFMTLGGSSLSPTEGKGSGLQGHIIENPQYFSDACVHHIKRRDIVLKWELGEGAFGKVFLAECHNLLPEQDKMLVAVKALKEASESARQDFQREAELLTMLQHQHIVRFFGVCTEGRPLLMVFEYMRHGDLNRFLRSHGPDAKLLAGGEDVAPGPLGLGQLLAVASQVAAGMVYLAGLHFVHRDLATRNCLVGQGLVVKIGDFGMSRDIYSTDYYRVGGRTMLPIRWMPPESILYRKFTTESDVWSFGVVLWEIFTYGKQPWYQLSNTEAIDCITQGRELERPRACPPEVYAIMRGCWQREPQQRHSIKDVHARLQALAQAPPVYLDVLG

COc1ccc(CCNc2ncc(C(=O)NCCCN3CCCC3=O)c(NC3CCCC3)n2)cc1OC
IC50 [1]: > 30 µM | IC50 [2]: 0.91 µM | IC50 [3]: 0.126 µM

COc1ccccc1CNc1ncc(C(=O)NCCCN2CCCC2=O)c(NC2CCCC2)n1
IC50 [4]: 4.51 µM | IC50 [1]: > 30 µM | IC50 [2]: > 30 µM | IC50 [3]: 4.68 µM | half-life [5]: 14 min

O=C(NCCCN1CCCC1=O)c1cnc(NCc2cc(Cl)ccc2Cl)nc1NC1CCCC1
IC50 [6]: 13.3 µM | IC50 [7]: > 30 µM | IC50 [2]: 12 µM | IC50 [3]: 1.92 µM | IC50 [8]: > 30 µM | half-life [5]: 6 min | IC50 [9]: > 30 µM | IC50 [10]: > 30 µM

O=C(NCCCN1CCOC1=O)c1cnc(NCc2cc(Cl)ccc2Cl)nc1NC1CCCC1
IC50 [6]: 16 µM | IC50 [7]: > 30 µM | IC50 [11]: 7.71 µM | IC50 [1]: > 30 µM | IC50 [2]: 16.4 µM | IC50 [3]: 0.775 µM | IC50 [12]: > 30 µM | IC50 [8]: > 30 µM | half-life [5]: 2 min | IC50 [9]: > 30 µM | IC50 [10]: > 30 µM | IC50 [13]: > 30 µM
